pIC50: −log10 of the molar value.

This assay deals with T1, Carboxylic ester hydrolase (Homo sapiens, UniProt Q8TDZ9).
T1 sequence (Q8TDZ9 whole entry): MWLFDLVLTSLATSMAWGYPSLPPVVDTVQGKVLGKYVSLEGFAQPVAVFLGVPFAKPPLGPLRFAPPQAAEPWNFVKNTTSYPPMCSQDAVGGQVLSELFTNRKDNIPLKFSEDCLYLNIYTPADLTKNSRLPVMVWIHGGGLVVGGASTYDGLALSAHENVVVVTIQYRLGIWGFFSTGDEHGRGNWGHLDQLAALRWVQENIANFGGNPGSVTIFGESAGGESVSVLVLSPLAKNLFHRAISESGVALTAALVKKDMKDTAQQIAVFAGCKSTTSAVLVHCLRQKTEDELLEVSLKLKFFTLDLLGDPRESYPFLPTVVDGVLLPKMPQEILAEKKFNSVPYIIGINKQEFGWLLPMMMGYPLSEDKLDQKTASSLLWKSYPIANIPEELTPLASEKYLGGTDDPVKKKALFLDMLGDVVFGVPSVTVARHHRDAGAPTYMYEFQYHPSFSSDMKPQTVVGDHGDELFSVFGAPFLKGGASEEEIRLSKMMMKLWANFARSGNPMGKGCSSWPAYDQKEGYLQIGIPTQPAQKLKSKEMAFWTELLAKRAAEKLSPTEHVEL
The assay is described as follows: TGH Inhibition Assay. The protocol:
Inhibition of TGH activity was assayed using COS-7 expressed TGH and the chromogenic substrate. IC50 values were determined from the inhibition observed at 7 different inhibitor concentrations (three trials each).
As to `O=C(CCc1ccc(OCc2ccccc2)cc1)c1ncc(-c2ccccn2)o1` [3-[4-(benzyloxy)phenyl]-1-[5-(pyridin-2-yl)-1,3-oxazol-2-yl]propan-1-one], the pIC50 (as a rule, the negative decadic logarithm of the IC50, by convention in mol/L) was 5.10. The compound `O=C(CCCCCCc1cccc(Cl)c1Cl)c1ncc(-c2ccccn2)o1` [7-(2,3-dichlorophenyl)-1-[5-(pyridin-2-yl)-1,3-oxazol-2-yl]heptan-1-one] gave a pIC50 of 6.30.

`O=C(CCc1ccc(COc2ccccc2)cc1)c1ncc(-c2ccccn2)o1` showed a pIC50 of 5.70.

(Values after BindingDB's records for doi:10.1021/jm061414r (The Scripps Research Institute, 2007).)
